Measurements: US20060281791A1, “Methods of increasing proliferation of adult mammalian cardiomyocytes through p38 map kinase inhibition” (CHILDREN'S MEDICAL CENTER CORPORATION, priority 2005, published 2006)
“And” between values parts separate entries of the source, which are not always exact repeats. Identical values can stand only once.

Test system: neonatal rat cardiomyocytes
Assay: cDNA microarray analysis (Affymetrix Rat Expression Set 230), x-fold changes of clustered genes
Format: cell-based
Details: 72 h, experiments (1) and (2)
Protocol: Animal experiments were performed in accordance with guidelines of Children's Hospital, Boston and UCLA. Ventricular cardiomyocytes from fetal (E19), 2-day-old (P2) and adult (250-350 g) Wistar rats (Charles River) were isolated as described with minor modifications (Engel et al. 1999; Engel et al. 2003). After digestion of fetal or neonatal hearts (0.14 mg/ml collagenase II (Invitrogen), 0.55 mg/ml pancreatin (Sigma)) cells were cultured in DMEM/F12 (GIBCO) containing 3 mM Na-pyruvate, 0.2% BSA, 0.1 mM ascorbic acid (Sigma), 0.5% Insulin-Transferrin-Selenium (100×), penicillin (100 U/ml), streptomycin (100 μg/ml), and 2 mM L-glutamine (GIBCO). Adult cardiomyocytes were cultured for 1 day in standard medium (DMEM, 25 mM Hepes, 5 mM taurine, 5 mM creatine, 2 mM L-carnitine (Sigma), 20 U/ml insulin (GIBCO), 0.2% BSA, penicillin (100 U/ml), and streptomycin (100 μg/ml)). Cells were stimulated in culture medium without BSA containing 2 mM L-glutamine. Neonatal and adult cardiomyocytes were initially cultured for 48 h in the presence of 20 μM cytosine β-D-arabinofuranoside (araC, Sigma) and 5% horse serum before stimulation to prevent proliferation of non-myocytes. Adult cardiomyocytes were incubated another 3 days with araC during stimulation. Neonatal cardiomyocytes were stimulated every day with growth factors for BrdU and H3P analyses (FGF1 and NRG-1-1β at 50 ng/ml, IL-1β at 100 ng/ml, R&D Systems, all diluted in 0.1% BSA/PBS). SB203580 and LY294002 (Calbiochem) was added every day. Adult cardiomyocytes were stimulated with fresh medium and SB203580 every 3 days.
RNA of neonatal cardiomyocytes was prepared 72 h after stimulation using Trizol (Invitrogen). RT-PCR was performed following standard protocols (Supplemental Table S4). Affymetrix technology was applied using the Rat Expression Set 230.
To determine the effect of p38 inhibition on cardiomyocyte differentiation and proliferation, a specific inhibitor of p38α and p38β, SB203580, was used and evaluated using cDNA microarray analyses using neonatal rat cardiomyocytes. […] Expression changes of a subset of genes were validated by RT-PCR.
Stimulation of neonatal cardiomyocytes with FGF1 induces fetal gene expression. To determine if FGF1, in combination with p38 inhibition, can reverse differentiation and induce cell cycle re-entry, we repeated cDNA microarray analyses (Supplemental Table S1). […]

FGF1: growth factor FGF1 (R&D Systems)
Actn1 expression, x-fold change: 1.9 x-fold | CXC chemokine LIX expression, x-fold change: 0.4 x-fold | Cdc42 effector protein expression, x-fold change: 0.8 x-fold | Cfl1 expression, x-fold change: 0.6 x-fold | Connexin 40 expression, x-fold change: 0.8 x-fold | Edg2 expression, x-fold change: 0.4 x-fold | Enigma expression, x-fold change: 2.3 x-fold | Epha3 expression, x-fold change: 0.5 x-fold | Epidermal growth factor-like protein, T16 precursor expression, x-fold change: 0.3 x-fold | Fgf16 expression, x-fold change: 0.8 x-fold | Figf expression, x-fold change: 0.3 x-fold | Kruppel-like factor 4 expression, x-fold change: 1.1 x-fold | Lgals5 expression, x-fold change: 2.9 x-fold | Maf-2 expression, x-fold change: 0.5 x-fold | Mtss1 expression, x-fold change: 0.5 x-fold | Nr2f2/COUP-TFII expression, x-fold change: 0.8 x-fold | Nudt4 expression, x-fold change: 0.8 x-fold | Osteoglycin expression, x-fold change: 0.4 x-fold | Osterix expression, x-fold change: 0.6 x-fold | PTTG1 expression, x-fold change: 1.4 x-fold | Protein tyrosine phosphatase, receptor type, D (Ptprd) expression, x-fold change: 0.5 x-fold | RPTPK expression, x-fold change: 0.4 x-fold | Rbp2 expression, x-fold change: 0.6 x-fold | Rdc1 expression, x-fold change: 0.5 x-fold | Rev-ErbA-beta expression, x-fold change: 0.7 x-fold | RhoGAP expression, x-fold change: 0.8 x-fold | Septin 6 expression, x-fold change: 1.9 x-fold | Serine-threonine specific protein phosphatase, GL subunit expression, x-fold change: 0.7 x-fold | Seta expression, x-fold change: 1.0 x-fold | TRAF4 associated factor 1 expression, x-fold change: 1.9 x-fold | Troponin I, slow isoform expression, x-fold change: 0.6 x-fold | Vcam1 expression, x-fold change: 0.3 x-fold | Wisp2 expression, x-fold change: 0.8 x-fold | (BEM)-3 expression, x-fold change (listed as FGF): 1.4 x-fold and 1.6 x-fold | AGTR1 expression, x-fold change (listed as FGF): 0.4 x-fold and 0.5 x-fold | Acta1 expression, x-fold change (listed as FGF): 4.8 x-fold and 6.3 x-fold | Actinin expression, x-fold change (listed as FGF): 1.8 x-fold and 1.5 x-fold | Adrenergic, alpha 1B-, receptor expression, x-fold change (listed as FGF): 0.8 x-fold and 0.7 x-fold | Adrenomedullin precursor expression, x-fold change (listed as FGF): 0.4 x-fold and 0.6 x-fold | Agtr1a expression, x-fold change (listed as FGF): 0.6 x-fold and 0.4 x-fold | Anillin expression, x-fold change (listed as FGF): 3.3 x-fold and 1.9 x-fold | Ankyrin 2, neuronal expression, x-fold change (listed as FGF): 0.6 x-fold and 0.7 x-fold | Ankyrin repeat domain-containing SOCS box protein 12 expression, x-fold change (listed as FGF): 0.5 x-fold and 0.6 x-fold | Apoptosis protein MA-3 expression, x-fold change (listed as FGF): 0.8 x-fold and 0.7 x-fold | Arrestin domain containing 3 expression, x-fold change (listed as FGF): 0.3 x-fold and 0.5 x-fold | Aurora B expression, x-fold change (listed as FGF): 1.5 x-fold and 1.9 x-fold | BMP2 expression, x-fold change (listed as FGF): 6.0 x-fold and 3.4 x-fold | BMP6 precursor expression, x-fold change (listed as FGF): 1.4 x-fold and 1.7 x-fold | BOC expression, x-fold change (listed as FGF): 0.5 x-fold and 0.6 x-fold | Bcl2a1 expression, x-fold change (listed as FGF): 0.4 x-fold and 0.6 x-fold | Bmp3 expression, x-fold change (listed as FGF): 0.5 x-fold and 0.6 x-fold | Bub1 expression, x-fold change (listed as FGF): 1.4 x-fold and 1.2 x-fold | CABC1 expression, x-fold change (listed as FGF): 0.6 x-fold and 0.5 x-fold | CDKN3/KAP/CDI1 expression, x-fold change (listed as FGF): 1.7 x-fold and 2.0 x-fold | CENP-E expression, x-fold change (listed as FGF): 1.3 x-fold and 1.7 x-fold | CISH expression, x-fold change (listed as FGF): 0.4 x-fold and 0.5 x-fold | CKS2 expression, x-fold change (listed as FGF): 1.7 x-fold and 1.4 x-fold | CREB5 expression, x-fold change (listed as FGF): 1.3 x-fold and 1.8 x-fold | CSRP1 expression, x-fold change (listed as FGF): 1.9 x-fold and 1.8 x-fold | CXCL4 expression, x-fold change (listed as FGF): 0.7 x-fold and 0.6 x-fold | Cacalmodulin-dependent protein kinase phosphatase expression, x-fold change (listed as FGF): 0.9 x-fold and 1.3 x-fold | Cadherin 13 expression, x-fold change (listed as FGF): 1.5 x-fold and 1.9 x-fold | Calponin 1 expression, x-fold change (listed as FGF): 6.4 x-fold and 4.9 x-fold | Casein kinase I delta expression, x-fold change (listed as FGF): 1.3 x-fold and 0.9 x-fold | Catenin, alpha-1 expression, x-fold change (listed as FGF): 1.6 x-fold and 1.5 x-fold | Cdc2a expression, x-fold change (listed as FGF): 1.7 x-fold and 1.8 x-fold | Cdc20 expression, x-fold change (listed as FGF): 1.9 x-fold and 1.7 x-fold | Cdc25B expression, x-fold change (listed as FGF): 1.6 x-fold and 1.3 x-fold | Cdca3 expression, x-fold change (listed as FGF): 1.3 x-fold and 1.4 x-fold | Cish2 expression, x-fold change (listed as FGF): 0.6 x-fold and 0.8 x-fold | Cish3 expression, x-fold change (listed as FGF): 0.8 x-fold and 0.9 x-fold | Cish expression, x-fold change (listed as FGF): 0.4 x-fold and 0.5 x-fold | Connexin 43 expression, x-fold change (listed as FGF): 0.9 x-fold and 0.8 x-fold | Csrp3/MLP expression, x-fold change (listed as FGF): 2.7 x-fold and 4.2 x-fold | Ctgf expression, x-fold change (listed as FGF): 1.9 x-fold and 1.6 x-fold | Cxcl12 expression, x-fold change (listed as FGF): 0.5 x-fold and 0.3 x-fold | Cyclin A2 expression, x-fold change (listed as FGF): 1.8 x-fold and 1.1 x-fold | Cyclin B1 expression, x-fold change (listed as FGF): 1.2 x-fold and 1.0 x-fold | Cyclin B expression, x-fold change (listed as FGF): 1.9 x-fold and 1.8 x-fold | Cyclin D1 expression, x-fold change (listed as FGF): 4.2 x-fold and 3.3 x-fold | DAPK1 expression, x-fold change (listed as FGF): 0.6 x-fold and 0.5 x-fold | DUSP6 expression, x-fold change (listed as FGF): 2.8 x-fold and 4.4 x-fold | Ddr2 expression, x-fold change (listed as FGF): 0.5 x-fold and 0.8 x-fold | Desmin expression, x-fold change (listed as FGF): 2.2 x-fold and 1.8 x-fold | Diaphanous homolog 3 expression, x-fold change (listed as FGF): 2.5 x-fold and 1.9 x-fold | Dok-5 expression, x-fold change (listed as FGF): 2.7 x-fold and 2.6 x-fold | Dri42 expression, x-fold change (listed as FGF): 0.5 x-fold and 0.3 x-fold | ETV5/ERM/PEA3 expression, x-fold change (listed as FGF): 20.4 x-fold and 11.2 x-fold | Ect2 expression, x-fold change (listed as FGF): 1.9 x-fold and 2.5 x-fold | Egfl3 expression, x-fold change (listed as FGF): 0.4 x-fold and 0.5 x-fold | Emr1 expression, x-fold change (listed as FGF): 0.6 x-fold and 0.4 x-fold | EphA2 expression, x-fold change (listed as FGF): 2.2 x-fold and 1.7 x-fold | Ephrin B3 expression, x-fold change (listed as FGF): 0.7 x-fold and 0.8 x-fold | FCEG expression, x-fold change (listed as FGF): 0.7 x-fold and 0.5 x-fold | FHL1 expression, x-fold change (listed as FGF): 7.3 x-fold and 5.1 x-fold | FHOS2 expression, x-fold change (listed as FGF): 0.7 x-fold and 0.8 x-fold | Fancd2 expression, x-fold change (listed as FGF): 0.7 x-fold and 1.1 x-fold | Fbln5 expression, x-fold change (listed as FGF): 0.4 x-fold and 0.6 x-fold | Fcgr2 expression, x-fold change (listed as FGF): 0.5 x-fold and 0.6 x-fold | Fcgr3 expression, x-fold change (listed as FGF): 0.5 x-fold and 0.6 x-fold | Flt4/VEGFR3 expression, x-fold change (listed as FGF): 1.8 x-fold and 2.5 x-fold | Frizzled-related protein 2 expression, x-fold change (listed as FGF): 0.5 x-fold and 0.3 x-fold | Fzd1 expression, x-fold change (listed as FGF): 0.7 x-fold and 0.8 x-fold | G0S2-like protein expression, x-fold change (listed as FGF): 0.5 x-fold and 0.6 x-fold | GADD45a expression, x-fold change (listed as FGF): 1.8 x-fold and 1.3 x-fold | GADD45 gamma expression, x-fold change (listed as FGF): 3.0 x-fold and 2.9 x-fold | GDF15 expression, x-fold change (listed as FGF): 1.6 x-fold and 2.6 x-fold | GOA1B expression, x-fold change (listed as FGF): 2.9 x-fold and 3.0 x-fold | Gab1 expression, x-fold change (listed as FGF): 0.6 x-fold and 0.7 x-fold | Ghr expression, x-fold change (listed as FGF): 0.9 x-fold and 0.8 x-fold | Glypican (GPC)-3 expression, x-fold change (listed as FGF): 0.4 x-fold and 0.5 x-fold | Growth hormone receptor expression, x-fold change (listed as FGF): 0.7 x-fold and 0.8 x-fold
